Laboratory results from patent US7151105B2, “Inhibitors of Hepatitis C virus RNA-dependent RNA polymerase, and compositions and treatments using the same” (Agouron Pharmaceuticals, Inc., priority 2004, dated 2006).

Target: T1, Recombinant HCV polymerase (Hepatitis C virus genotype 1b, UniProt P26663)
T1 construct: Recombinant HCV polymerase was tested for its ability to perform primer/template-directed transcription
Assay: biochemical
Settings: inhibition of polymerase-directed transcription; 30 min at 30° C; 30 nM enzyme; cpm data in triplicate
In short: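 Primer/template-directed RNA synthesis by 2.5 pmol HCV polymerase on poly(rC)300/biotin-dG12 with 1 μM GTP plus α-32P-GTP, in pH 7.2 Tris buffer with 10 mM MgCl2, for 30 min at 30 °C. Products were filter-captured and counted, with 1% DMSO final. IC50 was fitted from triplicate cpm; percent inhibition was reported where IC50 was impractical.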

T1 sequence (P26663 2420-3010): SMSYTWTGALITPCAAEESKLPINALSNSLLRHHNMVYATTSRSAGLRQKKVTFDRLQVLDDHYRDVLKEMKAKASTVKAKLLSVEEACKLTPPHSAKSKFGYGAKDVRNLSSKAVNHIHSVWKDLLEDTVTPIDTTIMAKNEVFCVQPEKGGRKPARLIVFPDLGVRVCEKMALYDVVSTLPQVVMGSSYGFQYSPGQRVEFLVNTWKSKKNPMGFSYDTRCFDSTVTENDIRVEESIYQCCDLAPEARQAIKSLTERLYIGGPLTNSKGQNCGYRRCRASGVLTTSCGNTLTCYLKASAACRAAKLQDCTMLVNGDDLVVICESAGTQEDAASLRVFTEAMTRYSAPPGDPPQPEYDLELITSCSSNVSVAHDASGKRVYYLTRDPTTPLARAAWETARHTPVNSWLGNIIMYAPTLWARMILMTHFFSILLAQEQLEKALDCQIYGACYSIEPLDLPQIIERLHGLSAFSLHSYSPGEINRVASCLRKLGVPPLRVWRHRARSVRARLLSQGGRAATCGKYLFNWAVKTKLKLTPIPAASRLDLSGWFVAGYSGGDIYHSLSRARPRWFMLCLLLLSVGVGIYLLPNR

Row | SMILES | IC50 [nM]
1 | Cc1cnc2nc(CC3=C(O)CC(CCc4cc(CC(F)(F)F)nc(CC(F)(F)F)c4)(C4CCCC4)OC3=O)nn2c1 (stereo not shown) [A(48), 6-{2-[2,6-Bis(2,2,2-trifluoroethyl)pyridin-4-yl]ethyl}-6-cyclopentyl-4-hydroxy-3-[(6-methyl[1,2,4]triazolo[1,5-a]pyrimidin-2-yl)methyl]-5,6-dihydro-2H-pyran-2-one] | 23
2 | Cc1cc(C)n2nc(CC3=C(O)CC(CCc4cnn(C(C)C)c4)(C4CCCC4)OC3=O)nc2n1 (stereo not shown) [A(62), 6-Cyclopentyl-3-[(5,7-dimethyl[1,2,4]triazolo[1,5-a]pyrimidin-2-yl)methyl]-4-hydroxy-6-[2-(1-isopropyl-1H-pyrazol-4-yl)ethyl]-5,6-dihydro-2H-pyran-2-one] | 60
3 | CCc1cc(CCC2(C3CCCC3)CC(O)=C(Cc3nc4nc(C)cc(C)n4n3)C(=O)O2)ccc1OCCNC(=O)OC(C)(C)C (stereo not shown) [A(70), tert-Butyl 2-[4-(2-{2-cyclopentyl-5-[(5,7-dimethyl[1,2,4]triazolo[1,5-a]pyrimidin-2-yl)methyl]-4-hydroxy-6-oxo-3,6-dihydro-2H-pyran-2-yl}ethyl)-2-ethylphenoxy]ethylcarbamate] | 14
4 | CCOc1cc(O)c(CC)cc1CCC1(C2CCCC2)CC(O)=C(Cc2nc3nc(C)cc(C)n3n2)C(=O)O1 (single isomer, unassigned) [A(31), 6-Cyclopentyl-3-[(5,7-dimethyl[1,2,4]triazolo[1,5-a]pyrimidin-2-yl)methyl]-6-[2-(2-ethoxy-5-ethyl-4-hydroxyphenyl)ethyl]-4-hydroxy-5,6-dihydro-2H-pyran-2-one] | 6
5 | CCOc1cc(O)c(CC)cc1CCC1(C2CCCC2)CC(O)=C(Cc2nc3ncc(C)cn3n2)C(=O)O1 (stereo not shown) [A(26), 6-Cyclopentyl-6-[2-(2-ethoxy-5-ethyl-4-hydroxyphenyl)ethyl]-4-hydroxy-3-[(6-methyl[1,2,4]triazolo[1,5-a]pyrimidin-2-yl)methyl]-5,6-dihydro-2H-pyran-2-one] | 4
6 | Cc1cnc2nc(CC3=C(O)CC(CCc4ccc(C(C)(C)C#N)c(C)c4)(C4CCCC4)OC3=O)nn2c1 (stereo not shown) [A(78), 2-[4-(2-{2-Cyclopentyl-4-hydroxy-5-[(6-methyl[1,2,4]triazolo[1,5-a]pyrimidin-2-yl)methyl]-6-oxo-3,6-dihydro-2H-pyran-2-yl}ethyl)-2-methylphenyl]-2-methylpropanenitrile] | 12
7 | CCOc1cc(O)c(CC)cc1CCC1(C2CCCC2)CC(O)=C(Cc2nc3nc(C)cc(C)n3n2)C(=O)O1 (single isomer, unassigned) [A(30), 6-Cyclopentyl-3-[(5,7-dimethyl[1,2,4]triazolo[1,5-a]pyrimidin-2-yl)methyl]-[-6–2-(2-ethoxy-5-ethyl-4-hydroxyphenyl)ethyl]-4-hydroxy-5,6-dihydro-2H-pyran-2-one] | 4
8 | CCc1cc(CCC2(C3CCCC3)CC(O)=C(Cc3nc4nc(C)cc(C)n4n3)C(=O)O2)ccc1CO (single isomer, unassigned; enantiomer 2) [A(115), Enantiomer 2 6-cyclopentyl-3-[(5,7-dimethyl[1,2,4]triazolo[1,5-a]pyrimidin-2-yl)methyl]-6-{2-[3-ethyl-4-(hydroxymethyl)phenyl]ethyl}-4-hydroxy-5,6-dihydro-2H-pyran-2-one] | 6
9 | CCc1cncc(CCC2(C3CCCC3)CC(O)=C(Cc3nc4nc(C)cc(C)n4n3)C(=O)O2)c1 (stereo not shown) [A(14), 6-Cyclopentyl-3-[(5,7-dimethyl[1,2,4]triazolo[1,5-a]pyrimidin-2-yl)methyl]-6-[2-(5-ethylpyridin-3-yl)ethyl]-4-hydroxy-5,6dihydro-2H-pyran-2-one] | 8
10 | CCOc1cc(O)c(CC)cc1CCC1(C2CCCC2)CC(O)=C(Cc2nc3nc(C)cc(C)n3n2)C(=O)O1 (stereo not shown) [A(22), 6-Cyclopentyl-3-[(5,7-dimethyl[1,2,4]triazolo[1,5-a]pyrimidin-2-yl)methyl]-6-[2-(2-ethoxy-5-ethyl-4-hydroxyphenyl)ethyl]-4-hydroxy-5,6-dihydro-2H-pyran-2-one] | 4
11 | CCc1cc(CCC2(C3CCCC3)CC(O)=C(Cc3nc4nc(C)cc(C)n4n3)C(=O)O2)ccc1CNCC1CC1 (stereo not shown) [A(127), 6-Cyclopentyl-6-[2-(4-{[(cyclopropylmethyl)amino]methyl}-3-ethylphenyl)ethyl]-3-[(5,7-dimethyl[1,2,4]triazolo[1,5-a]pyrimidin-2-yl)methyl]-4-hydroxy-5,6-dihydro-2H-pyran-2-one] | 130
12 | CCOc1cc(O)c(CC)cc1CCC1(C2CCCC2)CC(O)=C(Cc2nc3ncc(C)cn3n2)C(=O)O1 (single isomer, unassigned) [A(58), 6-Cyclopentyl-6-[2-(2-ethoxy-5-ethyl-4-hydroxyphenyl)ethyl]-4-hydroxy-3-[(6-methyl[1,2,4]triazolo[1,5-a]pyrimidin-2-yl)methyl]-5,6-dihydro-2H-pyran-2-one] | 1
13 | CCc1cc(CCC2(C3CCCC3)CC(O)=C(Cc3nc4nc(C)cc(C)n4n3)C(=O)O2)ccc1-c1ncco1 (single isomer, unassigned; enantiomer 2) [A(139), Enantiomer 2 of 6-Cyclopentyl-3-[(5,7-dimethyl[1,2,4]triazolo[1,5-a]pyrimidin-2-yl)methyl]-6-{2-[3-ethyl-4-(1,3-oxazol-2-yl)phenyl]ethyl}-4-hydroxy-5,6-dihydro-2H-pyran-2-one] | 4
14 | CC(C)(O)c1ccc(CCC2(C3CCCC3)CC(O)=C(Cc3nc4ncccn4n3)C(=O)O2)cc1Cl (stereo not shown) [B(35), 6-{2-[3-Chloro-4-(1-hydroxy-1-methylethyl)phenyl]ethyl}-6-cyclopentyl-4-hydroxy-3-([1,2,4]triazolo[1,5-a]pyrimidin-2-ylmethyl)-5,6-dihydro-2H-pyran-2-one] | 10
15 | Cc1cc(C)n2nc(CC3=C(O)CC(CCc4ccc([C@@H](C)NS(=O)(=O)CC(F)(F)F)cc4)(C4CCCC4)OC3=O)nc2n1 (stereo partly drawn) [A(82), N-{(1R)-1-[4(2-{2-cyclopentyl-5-[(5,7-dimethyl[1,2,4]triazolo[1,5-a]pyrimidin-2-yl)methyl]4-hydroxy-oxo-3,6dihydro-2H-pyran-2-yl}ethyl)phenyl]ethyl}-2,2,2-trifluoroethanesulfonamide] | 65

More lines, in order of falling IC50, values ahead:

Row | IC50 [nM] | SMILES
16 | 1200 | Cc1cc(C)n2nc(CC3=C(O)CC(CCn4cc(Br)ccc4=O)(C4CCCC4)OC3=O)nc2n1 (stereo not shown) [B(30), 5-Bromo-1-(2-{2-cyclopentyl-5-[(5,7-dimethyl[1,2,4]triazolo[1,5-a]pyrimidin-2-yl)methyl]-4-hydroxy-6-oxo-3,6-dihydro-2H-pyran-2-yl}ethyl)pyridin-2(1H)-one]
17 | 1100 | CCn1nc(C)c(CC2=C(O)CC(CCc3ccc(OC(C)C)c(Cl)c3)(C3CCCC3)OC2=O)c1C (stereo not shown) [B(19), 6-[2-(3-chloro-4-isopropoxyphenyl)ethyl]-6-cyclopentyl-3-[(1-ethyl-3,5-dimethyl-1H-pyrazol-4-yl)methyl]-4-hydroxy-5,6-dihydro-2H-pyran-2-one]
18 | 53 | COc1cc(OC)c(CCC2(C3CCCC3)CC(O)=C(Cc3nc(-c4ccccn4)nn3C)C(=O)O2)cc1Cl (stereo not shown) [B(16), 6-[2-(5-Chloro-2,4-dimethoxyphenyl)ethyl]-6-cyclopentyl-4-hydroxy-3-[(1-methyl-3-pyridin-2-yl-1H-1,2,4-triazol-5-yl)methyl]-5,6-dihydro-2H-pyran-2-one]
19 | 24 | CN(C)c1c(CC2=C(O)CC(CCc3ccc(C(C)(C)C#N)c(F)c3)(C3CCCC3)OC2=O)c(C(F)F)nn1C (stereo not shown) [Example B(51), 2-{4-[2-(2-Cyclopentyl-5-{[3-(difluoromethyl)-5-(dimethylamino)-1-methyl-1H-pyrazol-4-yl]methyl}-4-hydroxy-6-oxo-3,6-dihydro-2H-pyran-2-yl)ethyl]-2-fluorophenyl}-2-methylpropanenitrile]
20 | 22 | COc1cc(CO)c(F)cc1CCC1(C2CCCC2)CC(O)=C(Cc2nc3nc(C)cc(C)n3n2)C(=O)O1 (stereo not shown) [A(80), 6-Cyclopentyl-3-[(5,7-dimethyl[1,2,4]triazolo[1,5-a]pyrimidin-2-yl)methyl]-6-{2-[5-fluoro-4-(hydroxymethyl)-2-methoxyphenyl]ethyl}-4-hydroxy-5,6-dihydro-2H-pyran-2-one]
21 | 12 | Cc1cnc2nc(CC3=C(O)CC(CCc4cc(F)c(C(C)(C)C#N)cc4O)(C4CCCC4)OC3=O)nn2c1 (stereo not shown) [A(79), 2-[4-(2-{2-Cyclopentyl-4-hydroxy-5-[(6-methyl[1,2,4]triazolo[1,5-a]pyrimidin-2-yl)methyl]-6-oxo-3,6-dihydro-2H-pyran-2-yl}ethyl)-2-fluoro-5-hydroxyphenyl]-2-methylpropanenitrile]
22 | 7 | CCc1cc(CCC2(C3CCCC3)CC(O)=C(Cc3nc4ncc(C)cn4n3)C(=O)O2)ccc1Cn1cccn1 (stereo not shown) [A(113), 6-Cyclopentyl-6-{2-[3-ethyl-4-(1H-pyrazol-1-ylmethyl)phenyl]ethyl}-4-hydroxy-3-[(6-methyl[1,2,4]triazolo[1,5-a]pyrimidin-2-yl)methyl]-5,6-dihydro-2H-pyran-2-one]
23 | 6 | COC(=O)c1ccc(CCC2(C3CCCC3)CC(O)=C(Cc3nc4nc(C)cc(C)n4n3)C(=O)O2)cc1Cl (stereo not shown) [B(9), Methyl 2-chloro-4-(2-{2-cyclopentyl-5-[(5,7-dimethyl[1,2,4]triazolo[1,5-a]pyrimidin-2-yl)methyl]-4-hydroxy-6-oxo-3,6-dihydro-2H-pyran-2-yl}ethyl)benzoate]
24 | 6 | Cc1cc(C)n2nc(CC3=C(O)CC(CCc4ccc(S(C)(=O)=O)c(C(F)(F)F)c4)(C4CCCC4)OC3=O)nc2n1 (stereo not shown) [B(4), 6-Cyclopentyl-3-[(5,7-dimethyl[1,2,4]triazolo[1,5-a]pyrimidin-2-yl)methyl]-4-hydroxy-6-{2-[4-(methylsulfonyl)-3-(trifluoromethyl)phenyl]ethyl}-5,6-dihydro-2H-pyran-2-one]
25 | 3 | CCc1cc(CCC2(C3CCCC3)CC(O)=C(Cc3nc4ncc(C)cn4n3)C(=O)O2)ccc1CC#N (stereo not shown) [A(103), [4-(2-{2-cyclopentyl-4-hydroxy-5-[(6-methyl[1,2,4]triazolo[1,5-a]pyrimidin-2-yl)methyl]-6-oxo-3,6-dihydro-2H-pyran-2-yl}ethyl)-2-ethylphenyl]acetonitrile]
